In brackets after ≈: the same amount, converted by molar mass.
Columns and labels:
[1] = Aqueous solubility analysis in MOPS buffer; assay type: physicochemical; details: aqueous 10 mM MOPS buffer, thermodynamic from solid; after 24 hours in 10 mM aqueous MOPS buffer, pH 7.2
Experimental: A 2 dram vial was loaded with ˜0.5 mg of a thiostrepton derivative and suspended in ˜4 mL of aqueous 10 mM MOPS buffer (pKa 7.2). The suspension was stirred vigorously for 24 h to ensure equilibration, then filtered through a […] centrifuge filtration unit. A 3.0 mL aliquot was concentrated, and the dried residue was diluted with 0.30 mL of 1:1 1,4-dioxane/H2O (10× original concentration necessitated by detection limits). The total UV absorbance (200-300 nm) was measured in triplicate by UPLC runs with a photodiode array detector. A calibration curve for each compound was created using data points from 3 trials each of concentrations in 1:1 1,4-dioxane/H2O ranging from […]. These concentrations were plotted against their respective average absorbances. The experimental concentration of each compound was calculated by dividing the found μg/mL value by the residue concentration factor of 10 to yield the actual solubility value.

[2] = tested on: E. faecalis and E. faecium; assay: MIC broth microdilution, summary over enterococci; assay type: cell-based; details: across the evaluated enterococci, VSE and VRE; read-out: MIC values against E. faecalis and E. faecium
Experimental: (§1) Twenty-four test agents were shipped to Micromyx and stored at −20° C. until assayed. The compounds were dissolved in 100% DMSO at 6.46 mg/mL prior to testing. Comparator drugs were supplied by Micromyx and were handled as described below:
(§2) The test organisms for the assay were recent clinical isolates or reference strains acquired from the American Type Culture Collection (ATCC; Manassas, Va.). Upon receipt, the isolates were streaked onto Trypticase Soy Agar II+5% sheep blood (TSAB). Colonies were harvested from the plates and a cell suspension was prepared in Trypticase Soy Broth containing cryoprotectant. Aliquots were then frozen at −80° C. Prior to the assay, the frozen seeds of all bacterial isolates to be tested were thawed and streaked for isolation onto TSAB (BD/BBL, Sparks, Md.; Lot No. 9011894), and were incubated overnight at 35° C.
(§3) The test medium for all isolates was cation-adjusted Mueller Hinton broth (CAMHB; BD/BBL; Lot No. 8190586). CAMHB (Cation Adjusted Mueller Hinton Broth) was supplemented with 3% (v/v) lysed horse blood (LHB; Hemostat, Dixon, Calif.; Lot No. 474990) for the testing of streptococci.
(§4) MIC values were determined using a broth microdilution method as recommended by CLSI. Automated liquid handlers (Multidrop 384, Labsystems, Helsinki, Finland; Biomek 2000 and Biomek F/X, Beckman Coulter, Fullerton Calif.) were used to conduct serial dilutions and make liquid transfers.
(§5) The wells of standard 96-well microdilution plates (Costar 3795, Corning Inc., Corning, N.Y.) were filled with 150 μL of the appropriate diluent in columns 2-12 on the Multidrop 384 (DMSO for the thiostrepton analogs, deionized H2O for vancomycin and ceftazidime). These plates were used to prepare the drug “mother plate” which provided the serial drug dilutions for the replicate “daughter plates”. The compounds (300 μL) were dispensed at 101× the highest concentration to be tested into the appropriate row of the “mother plate”. The Biomek 2000 was used to transfer 150 μL of each stock solution from the wells in Column 1 of the mother plate to make ten subsequent 2-fold serial dilutions. The wells of Column 12 contained no drug and served as the organism growth control wells. The daughter plates were loaded with 190 μL of test medium using the Multidrop 384.
(§6) The daughter plates were prepared on the Biomek F/X instrument which transferred […] of drug solution from each well of the mother plate to each corresponding well of each daughter plate in a single step. The wells of the daughter plates ultimately contained 190 μL of media, 2 μL of drug solution, and 10 μL of inoculum prepared as described below. The final concentration of DMSO (if used as a solvent) in the test well was 1%.
(§7) A standardized inoculum of each organism was prepared per CLSI methods. A suspension of organisms from a fresh plate was prepared in CAMHB to equal the turbidity of a 0.5 McFarland standard. The suspensions were diluted 1:20 in CAMHB, or in the case of streptococci CAMHB with LHB. The inoculum for each organism was dispensed into sterile reservoirs divided by length (Beckman Coulter), and the Biomek 2000 was used to inoculate the plates. Daughter plates were placed on the Biomek 2000 work surface reversed so that inoculation took place from low to high drug concentration. The Biomek 2000 delivered 10 μL of standardized inoculum into each well. These dilutions yielded a final cell concentration in the daughter plates of approximately 5.0×10^5 CFU/mL.
(§8) Plates were stacked 3 high, covered with a lid on the top plate, placed in plastic bags, and incubated at 35° C. for 16-20 hr for all organisms except streptococci which were incubated for 20-24 hr. Following incubation, the microplates were removed from the incubator and viewed from the bottom using a plate viewer. The MIC was read and recorded as the lowest concentration of drug that inhibited visible growth of the organism. […]

[3] = tested on: E. faecalis ATCC 29212 VSE; assay: MIC broth microdilution; assay type: cell-based; details: Enterococcus faecalis, ATCC29212; E. faecalis ATCC 29212 VSE; CAMHB; read-out: MIC
Experimental: as §1, §2, §3, §4, §5, §6, §7, §8

[4] = tested on: S. pneumoniae ATCC 49619 PISP; assay: MIC broth microdilution; assay type: cell-based; details: Streptococcus pneumoniae, ATCC49619, 20 h; S. pneumoniae ATCC 49619 PISP; CAMHB with 3% lysed horse blood; read-out: MIC
Experimental: as §1, §2, §3, §4, §5, §6, §7, §8

E. coli ATCC 25922 = assay: MIC broth microdilution; assay type: cell-based; details: Escherichia coli, ATCC25922; E. coli ATCC 25922; CAMHB; read-out: MIC
Experimental: as §1, §2, §3, §4, §5, §6, §7, §8

E. faecalis MMX 486 VRE = assay: MIC broth microdilution; assay type: cell-based; details: Enterococcus faecalis; E. faecalis MMX 486 VRE; CAMHB; read-out: MIC
Experimental: as §1, §2, §3, §4, §5, §6, §7, §8

S. pyogenes ATCC 19615 = assay: MIC broth microdilution; assay type: cell-based; details: Streptococcus pyogenes, ATCC19615, 20 h; S. pyogenes ATCC 19615; CAMHB with 3% lysed horse blood; read-out: MIC
Experimental: as §1, §2, §3, §4, §5, §6, §7, §8

E. faecium MMX 485 VRE = assay: MIC broth microdilution; assay type: cell-based; details: Enterococcus faecium; E. faecium MMX 485 VRE; CAMHB; read-out: MIC
Experimental: as §1, §2, §3, §4, §5, §6, §7, §8

[5] = tested on: S. aureus ATCC 29213 MSSA; assay: MIC broth microdilution; assay type: cell-based; details: Staphylococcus aureus; S. aureus ATCC 29213 MSSA; CAMHB; read-out: MIC
Experimental: as §1, §2, §3, §4, §5, §6, §7, §8

E. faecium MMX 708 VSE = assay: MIC broth microdilution; assay type: cell-based; details: Enterococcus faecium, MMX708VSE; E. faecium MMX 708 VSE; CAMHB; read-out: MIC
Experimental: as §1, §2, §3, §4, §5, §6, §7, §8

S. aureus MMX 8088 MRSA = assay: MIC broth microdilution; assay type: cell-based; details: Staphylococcus aureus; S. aureus MMX 8088 MRSA; CAMHB; read-out: MIC
Experimental: as §1, §2, §3, §4, §5, §6, §7, §8

S. aureus isolates = assay: MIC broth microdilution, S. aureus isolates; assay type: cell-based; details: Staphylococcus aureus; across MSSA and MRSA isolates; read-out: MIC values against S. aureus isolates
Experimental: as §1, §2, §3, §4, §5, §6, §7, §8

Gram-positive cocci = assay: MIC broth microdilution, overall summary; assay type: cell-based; details: summary of MIC testing
Experimental: as §1, §2, §3, §4, §5
The daughter plates were prepared on the Biomek F/X instrument which transferred […] of drug solution from each well of the mother plate to each corresponding well of each daughter plate in a single step. […]
as §8, with “Following incubation, the microplates were removed from the incubator and viewed from the bottom using a plate viewer.” left out

[6] = Un-inoculated solubility control plate (drug precipitation); assay type: physicochemical; details: at 64 μg/mL in CAMHB

Row | SMILES | solubility at 24 h [1] [µg/mL] | MIC [2] [µg/mL] | MIC [3] [µg/mL] | MIC [4] [µg/mL] | MIC (E. coli ATCC 25922) [µg/mL] | MIC (E. faecalis MMX 486 VRE) [µg/mL] | MIC (S. pyogenes ATCC 19615) [µg/mL] | MIC (E. faecium MMX 485 VRE) [µg/mL] | MIC [5] [µg/mL] | MIC (E. faecium MMX 708 VSE) [µg/mL] | MIC (S. aureus MMX 8088 MRSA) [µg/mL] | MIC (S. aureus isolates) [µg/mL] | Activity among the evaluated analogs / against evaluated Gram-positive cocci (summary in words) (Gram-positive cocci) | Precipitation in CAMHB [6]
1 | C=C(NC(=O)c1csc(C2=N[C@@H]3c4csc(n4)[C@H]4NC(=O)c5csc(n5)[C@H]([C@](C)(O)[C@@H](C)O)NC(=O)C5CSC(=N5)/C(=C/C)NC(=O)[C@H]([C@@H](C)O)NC(=O)c5csc(n5)[C@]3(CC2)NC(=O)[C@H](C)NC(=O)C(=C)NC(=O)[C@H](C)NC(=O)[C@H]([C@@H](C)CC)N[C@@H]2C=Cc3c([C@H](C)O)cc(nc3[C@H]2O)C(=O)O[C@@H]4C)n1)C(=O)NC(=CNC(=O)c1ccc(Cl)cc1)C(N)=O [RJS-09] | < 1 | 0.12 to 0.25 (≈ 0.066 to 0.137 µM) | 0.25 (≈ 0.137 µM) | < 0.001 | > 64 | 0.25 (≈ 0.137 µM) | 0.002 (≈ 0.0011 µM) | 0.12 (≈ 0.066 µM) | 0.25 (≈ 0.137 µM) | 0.25 (≈ 0.137 µM) | 0.5 (≈ 0.275 µM) | 0.25 to 0.5 (≈ 0.137 to 0.275 µM) | most activity | distinct precipitation
2 | C=C(NC(=O)c1csc(C2=N[C@@H]3c4csc(n4)[C@H]4NC(=O)c5csc(n5)[C@H]([C@](C)(O)[C@@H](C)O)NC(=O)C5CSC(=N5)/C(=C/C)NC(=O)[C@H]([C@@H](C)O)NC(=O)c5csc(n5)[C@]3(CC2)NC(=O)[C@H](C)NC(=O)C(=C)NC(=O)[C@H](C)NC(=O)[C@H]([C@@H](C)CC)N[C@@H]2C=Cc3c([C@H](C)O)cc(nc3[C@H]2O)C(=O)O[C@@H]4C)n1)C(=O)NC(=CNC(=O)C(C)C)C(N)=O [RJS-04] | 16.2 (≈ 9.26 µM) |  | 0.5 (≈ 0.286 µM) | 0.004 (≈ 0.00229 µM) | > 64 | 1 (≈ 0.571 µM) | 0.004 (≈ 0.00229 µM) | 0.25 (≈ 0.143 µM) | 0.5 (≈ 0.286 µM) | 1 (≈ 0.571 µM) | 0.5 (≈ 0.286 µM) | 0.25 to 0.5 (≈ 0.143 to 0.286 µM) |  | distinct precipitation

From patent US20220315624A1, “THIOSTREPTON ANALOGS AND METHODS OF MAKING AND USING SAME” (YALE UNIVERSITY, priority 2019, published 2022)
